No end group written: not given here.
How the values were obtained:
[1] = test system: high alcohol-consuming mice; conditions: central infusion, ref [47]; cited from earlier work
[2] = test system: CB1 receptor; assay: Aquoscreen receptor activity assay, CB1; format: cell-based, human; conditions: 60 µM JWH-018, also at 7.5 µM; luminescence
[3] = test system: alcohol-related responses; conditions: preclinical and clinical studies, ref [6–18]; cited from earlier work
Description: Alcohol use disorder (AUD) is a major public health problem with high morbidity and mortality. Its development is complex and the dopaminergic neurons from the ventral tegmental area (VTA) to the nucleus accumbens (NAc) have gained extra interest as they mediate alcohol-induced reward (for review see [2, 3]). Various biological systems participate in the ability of alcohol to interact with these dopamine neurons, and gut-brain peptides have been implied as important modulators (for review see [4]). One of these peptides is ghrelin (i.e., acyl-ghrelin, the acylated form of ghrelin [ ...

[4] = test system: memory function via hippocampal mechanisms; conditions: ref [50], [51]; cited from earlier work
[5] = test system: SERT; assay: Transporter inhibition in recombinant cell line, SERT; format: cell-based, human; conditions: cocaine at 12.5 µM and 6.25 µM (top concentration 50 µM); 3 h, fluorescence
[6] = test system: human transporter of dopamine (DAT); assay: Transporter inhibition in recombinant cell line (neurotransmitter transporter uptake assay), DAT; format: cell-based; conditions: cocaine at such concentration (12.5 µM and 6.25 µM); CHO-K1 cells, 3 h, fluorescence
[7] = test system: NET; assay: Transporter inhibition in recombinant cell line, NET; format: cell-based, human; conditions: cocaine at 12.5 µM and 6.25 µM (top concentration 50 µM); 3 h, fluorescence
[8] = test system: dopamine in NAc shell; assay: In vivo microdialysis, dopamine release in NAc shell; set-up: species or system Wistar rats; conditions: male rats (methods), alcohol 2 g/kg IP, n = 8 per group
Description: Male and female Rcc Han Wistar rats (8–12 weeks old at arrival; Envigo, Horst, Netherlands) were used for the alcohol drinking and locomotor activity experiments as they drink alcohol to intoxicating levels. For in vivo microdialysis studies male Wistar rats (Charles River, Calco, Italy) were used as they display robust dopamine levels in NAc shell after alcohol injection. […] All rodents were allowed to habituate to the animal facility at least one week before they entered an experiment. […] The sample sizes of each experiment were based on previous experience in which statistical significance has been detected. The person who conducted the experiments, and analyzed the collected data was aware of the treatment allocation. Only preset exclusion criteria were used when analyzing the data obtained in attempts to exclude confounding factors in analyzing data. In the alcohol drinking experiments leaking bottles and low alcohol consumption (<3.0 g/kg for males; <3.5 g/kg for females) were preset exclusion criteria. The preset exclusion criterion in the ex vivo HPLC-EC, ELISA, and recombinant cell line experiments was contamination of the sample. Misplaced probes, technical difficulties, and damages to the surgery area were preset exclusion criteria for the in vivo microdialysis experiment. Intra-cage male aggression was the preset exclusion criterion for the locomotor activity and CPP experiments. To minimize tentative confounding factors, the order of treatments was stratified, with treatments being mixed for each animal cage and for each apparatus used as well as balancing the alcohol intake between future treatment groups. […]
The data from drinking experiments were analyzed by unpaired t-test or repeated two-way ANOVA. A two-tailed unpaired t-test analyzed the ELISA, ex vivo HPLC-EC, and cFOS data. […] A one-way ANOVA with Bonferroni post hoc tests and unpaired t-test analyzed the locomotor activity and CPP data, respectively. The in vivo microdialysis experiments were evaluated by a repeated two-way ANOVA followed by the Bonferroni post hoc test.

[9] = test system: male mice; assay: Locomotor activity test, alcohol-induced stimulation and DAG per se, mice; format: in vivo, NMRI mice
Description: Male and female Rcc Han Wistar rats (8–12 weeks old at arrival; Envigo, Horst, Netherlands) were used for the alcohol drinking and locomotor activity experiments as they drink alcohol to intoxicating levels. For in vivo microdialysis studies male Wistar rats (Charles River, Calco, Italy) were used as they display robust dopamine levels in NAc shell after alcohol injection. […] All rodents were allowed to habituate to the animal facility at least one week before they entered an experiment. […] The sample sizes of each experiment were based on previous experience in which statistical significance has been detected. The person who conducted the experiments, and analyzed the collected data was aware of the treatment allocation. Only preset exclusion criteria were used when analyzing the data obtained in attempts to exclude confounding factors in analyzing data. In the alcohol drinking experiments leaking bottles and low alcohol consumption (<3.0 g/kg for males; <3.5 g/kg for females) were preset exclusion criteria. The preset exclusion criterion in the ex vivo HPLC-EC, ELISA, and recombinant cell line experiments was contamination of the sample. Misplaced probes, technical difficulties, and damages to the surgery area were preset exclusion criteria for the in vivo microdialysis experiment. Intra-cage male aggression was the preset exclusion criterion for the locomotor activity and CPP experiments. To minimize tentative confounding factors, the order of treatments was stratified, with treatments being mixed for each animal cage and for each apparatus used as well as balancing the alcohol intake between future treatment groups.
Alcohol was in the behavioral and neurochemical tests injected (intraperitoneally, IP) 5 min before the test.
Locomotor activity tests were conducted in ventilated and dim-lit (4 lux) open field arenas (420 × 420 × 200 mm; Med Associates Inc; Georgia, Vermont, USA). Infra-red beams detected distance traveled, number of jumps, vertical counts, average velocity, stereotypic counts, number of inner zone entries, and time spent in the inner/outer zones of each animal.
In the first test, after 60 min of habituation, male (n = 24) or female (n = 24) rats were injected with vehicle or DAG (0.5, 1.0, or 2.0 mg/kg). 15 min later the activity was monitored for another 60 min. In the second locomotor activity experiment, male mice (n = 32) were allowed to habituate for 60 min. After that, they were injected with vehicle or DAG (0.25, 0.5, or 1.0 mg/kg). After 15 min the activity was monitored for another 60 min.
Therefore, male mice were (n = 32) injected with DAG (1.0 mg/kg) or vehicle 15 min before alcohol or vehicle. The activity registration started 5 min later and was recorded for an additional 60 min. Identical locomotor activity experiments were conducted in new male mice (n = 32), where a lower dose of DAG (0.5 mg/kg) was combined with alcohol.
The data from drinking experiments were analyzed by unpaired t-test or repeated two-way ANOVA. A two-tailed unpaired t-test analyzed the ELISA, ex vivo HPLC-EC, and cFOS data. In addition, the Pearson test correlated the serum levels and the mean values of alcohol intake in rats. A one-way ANOVA with Bonferroni post hoc tests and unpaired t-test analyzed the locomotor activity and CPP data, respectively. The in vivo microdialysis experiments were evaluated by a repeated two-way ANOVA followed by the Bonferroni post hoc test.

LEAP2: recently discovered inverse GHSR agonist (MTPFWRGVSLRPIGASCRDDSECITRLCRKRRCSLSVAQE; ends and bridges not checked; cysteine pairing not given here; UniProt Q969E1 38-77, looked up)
alcohol intake [1]: reduces alcohol intake in high alcohol-consuming mice after its central infusion

CCCCCn1cc(C(=O)c2cccc3ccccc23)c2ccccc21 [JWH-018]
effect on target receptor CB1 [2]: full target receptor inhibition

ghrelin (GSSFLSPEHQRVQQRKESKKPPAKLQPR; ends and bridges not checked; also: octanoylated, position not given here; UniProt Q9UBU3 24-51, looked up) [orexigenic peptide, the acylated form of ghrelin]
alcohol-related responses [3]: enhances | memory function [4]: enhance memory function via hippocampal mechanisms

COC(=O)[C@H]1[C@@H](OC(=O)c2ccccc2)C[C@@H]2CC[C@H]1N2C [cocaine]
inhibition of SERT [5]: full NET and SERT inhibition at 12.5 µM and 6.25 µM | inhibition of DAT, share of full transporter inhibition [6]: 70–80% | inhibition of NET [7]: full NET and SERT inhibition at 12.5 µM and 6.25 µM

CCO [alcohol]
dopamine in NAc shell, alcohol vs vehicle [8]: elevated dopamine in NAc shell (80 min P < 0.001, 160 min P = 0.0011, 180 min P = 0.0037, 200 min P < 0.0001) | locomotor stimulation by alcohol ([9]; alcohol 1.75 g/kg IP (experiment with DAG 0.5 mg/kg)): hyperlocomotion after alcohol (P = 0.0225) | locomotor stimulation by alcohol ([9]; alcohol 1.75 g/kg IP vs vehicle, n = 8 per group (experiment with DAG 1 mg/kg)): caused a locomotor simulation (P = 0.0136)

From PMC11224403, “Des-acyl ghrelin reduces alcohol intake and alcohol-induced reward in rodents” (Translational Psychiatry, 2024)
